Values of other authors as cited in US6511676B1 (priority 1999, dated 2003).

Tests used:
testicular cancers = conditions: in vivo
[1] = test system: epithelial ovarian carcinoma; conditions: oral, 61 patients with cis- or carboplatin resistance

Row | Structure (SMILES) | testicular cancers cured (testicular cancers) | objective response rate [1]
1 | N.N.[Cl][Pt][Cl] [cisplatin, Cis-diamminedichloroplatinum(II)] | More than 90% | 
2 | CN(C)c1nc(N(C)C)nc(N(C)C)n1 [hexamethylmelamine] |  | 14%
